In the NIST ThermoML archive (doi:10.1021/je800334m):

Columns and labels:
[1] = Liquid
[2] = excess molar enthalpy (molar enthalpy of mixing); xn = mol fraction of the nth substance listed; details: Liquid

CN(C)CCO [2-(N,N-dimethylamino)ethanol]
molar volume [m3/mol], [1]
Details	298.15 K	313.15 K	328.15 K
100 kPa	0.0001009	0.0001024	0.0001039
10000 kPa	0.0001009	0.0001024	0.0001039

CN(C)CCO [2-(N,N-dimethylamino)ethanol] + CC(C)O
excess molar enthalpy [kcal/mol], [2]
Details	298.2 K	313.2 K	328.2 K
100 kPa, x1 = 0.0496	–	-0.00404	–
100 kPa, x1 = 0.0499	–	–	-0.00858
100 kPa, x1 = 0.1008	0.00387	-0.00413	–
100 kPa, x1 = 0.1014	–	–	-0.0122
100 kPa, x1 = 0.1502	0.00667	-0.00304	–
100 kPa, x1 = 0.1511	–	–	-0.0135
100 kPa, x1 = 0.1994	0.00889	-0.00167	–
100 kPa, x1 = 0.2005	–	–	-0.0137
100 kPa, x1 = 0.2501	0.0103	-0.000645	–
100 kPa, x1 = 0.2513	–	–	-0.0135
100 kPa, x1 = 0.3005	0.0112	0.000215	–
100 kPa, x1 = 0.3018	–	–	-0.0132
100 kPa, x1 = 0.3504	0.0115	0.000693	–
100 kPa, x1 = 0.3519	–	–	-0.013
100 kPa, x1 = 0.3999	0.0114	0.000813	–
100 kPa, x1 = 0.4015	–	–	-0.0127
100 kPa, x1 = 0.4507	0.0109	0.000717	–
100 kPa, x1 = 0.4524	–	–	-0.0124
100 kPa, x1 = 0.501	0.01	0.000478	–
100 kPa, x1 = 0.5026	–	–	-0.012
100 kPa, x1 = 0.5505	0.00891	-0.00012	–
100 kPa, x1 = 0.5522	–	–	-0.0115
100 kPa, x1 = 0.5993	0.00784	-0.000287	–
100 kPa, x1 = 0.6009	–	–	-0.0109
100 kPa, x1 = 0.6508	–	–	-0.0103
10000 kPa, x1 = 0.0499	–	-0.0044	-0.00937
10000 kPa, x1 = 0.0998	0.00325	-0.00464	-0.0129
10000 kPa, x1 = 0.1494	–	-0.00457	–
10000 kPa, x1 = 0.2005	0.00825	-0.00237	-0.0145
10000 kPa, x1 = 0.2496	0.00958	-0.00134	-0.0143
10000 kPa, x1 = 0.3	0.0103	-0.000598	-0.0139
10000 kPa, x1 = 0.35	0.0107	-0.000167	-0.0135
10000 kPa, x1 = 0.3995	0.0107	-2.39e-05	-0.0131
10000 kPa, x1 = 0.4504	0.0103	-9.56e-05	-0.0127
10000 kPa, x1 = 0.5006	0.0097	-0.000311	-0.0123
10000 kPa, x1 = 0.5501	0.00889	-0.000621	-0.0118
10000 kPa, x1 = 0.6009	0.00789	–	-0.0111
10000 kPa, x1 = 0.6508	–	–	-0.0109

CN(C)CCO [2-(N,N-dimethylamino)ethanol] + CCCO
excess molar enthalpy [kcal/mol], [2], Flow calorimetry
Details	298.2 K	313.2 K	328.2 K
100 kPa, x1 = 0.2007	-0.0457	–	-0.0632
100 kPa, x1 = 0.2509	-0.0511	–	-0.0696
100 kPa, x1 = 0.2984	–	-0.06	–
100 kPa, x1 = 0.3008	-0.0552	–	-0.0748
100 kPa, x1 = 0.3505	-0.0583	-0.0638	-0.0781
100 kPa, x1 = 0.3999	-0.0599	–	-0.0796
100 kPa, x1 = 0.4012	–	-0.066	–
100 kPa, x1 = 0.4501	–	-0.0668	–
100 kPa, x1 = 0.4507	-0.0602	–	-0.0797
100 kPa, x1 = 0.499	-0.0606	–	-0.0781
100 kPa, x1 = 0.5004	–	-0.0662	–
100 kPa, x1 = 0.5488	–	-0.0642	–
100 kPa, x1 = 0.5509	-0.0586	–	-0.0749
100 kPa, x1 = 0.5985	–	-0.0613	–
100 kPa, x1 = 0.6	-0.056	–	-0.0707
100 kPa, x1 = 0.6497	–	-0.0571	–
100 kPa, x1 = 0.6505	-0.0524	–	-0.065
100 kPa, x1 = 0.6986	–	-0.0518	–
100 kPa, x1 = 0.7001	–	–	-0.0585
100 kPa, x1 = 0.7488	–	-0.0455	–
100 kPa, x1 = 0.8005	–	-0.0377	–
100 kPa, x1 = 0.8495	–	-0.0297	–
10000 kPa, x1 = 0.2001	-0.0457	–	-0.063
10000 kPa, x1 = 0.2492	–	-0.0553	–
10000 kPa, x1 = 0.2503	-0.0511	–	-0.0701
10000 kPa, x1 = 0.2998	–	-0.0611	–
10000 kPa, x1 = 0.3004	-0.0553	–	-0.0757
10000 kPa, x1 = 0.3489	–	-0.0646	–
10000 kPa, x1 = 0.3502	-0.0582	–	-0.079
10000 kPa, x1 = 0.3995	-0.0602	-0.0667	-0.0808
10000 kPa, x1 = 0.4484	–	-0.0674	–
10000 kPa, x1 = 0.4504	-0.0609	–	-0.0811
10000 kPa, x1 = 0.4986	–	-0.067	–
10000 kPa, x1 = 0.5007	-0.0605	–	-0.0793
10000 kPa, x1 = 0.5504	-0.0587	-0.065	-0.0764
10000 kPa, x1 = 0.5994	-0.056	–	-0.0722
10000 kPa, x1 = 0.6001	–	-0.0618	–
10000 kPa, x1 = 0.6497	-0.0527	–	-0.0667
10000 kPa, x1 = 0.6512	–	-0.0573	–
10000 kPa, x1 = 0.7	–	-0.0518	–
10000 kPa, x1 = 0.7501	–	-0.0453	–
10000 kPa, x1 = 0.8015	–	-0.0375	–
10000 kPa, x1 = 0.8503	–	-0.0293	–

CCO [ethanol]
molar volume [m3/mol], [1]
Details	298.15 K	313.15 K	328.15 K
100 kPa	5.867e-05	5.964e-05	6.067e-05
10000 kPa	5.803e-05	5.899e-05	6.001e-05

CO [methanol]
molar volume [m3/mol], [1]
Details	298.15 K	313.15 K	328.15 K
100 kPa	4.073e-05	4.146e-05	4.221e-05
10000 kPa	4.024e-05	4.096e-05	4.17e-05

CCCO [propan-1-ol]
molar volume [m3/mol], [1]
Details	298.15 K	313.15 K	328.15 K
100 kPa	7.514e-05	7.632e-05	7.759e-05
10000 kPa	7.452e-05	7.569e-05	7.694e-05

CC(C)O [propan-2-ol]
molar volume [m3/mol], [1]
Details	298.15 K	313.15 K	328.15 K
100 kPa	7.694e-05	7.822e-05	7.962e-05
10000 kPa	7.594e-05	7.72e-05	7.857e-05
